{
  "source": "patent US20200354426A1",
  "about": "(MEDIMMUNE LIMITED, priority 2016, published 2020)",
  "key": {"Rat GlucR": {"molecular_target": "T1, Rat GlucR (Rattus norvegicus, UniProt P30082)", "T1 construct": "expressed in transfected cells", "T1 sequence (P30082 27-485)": "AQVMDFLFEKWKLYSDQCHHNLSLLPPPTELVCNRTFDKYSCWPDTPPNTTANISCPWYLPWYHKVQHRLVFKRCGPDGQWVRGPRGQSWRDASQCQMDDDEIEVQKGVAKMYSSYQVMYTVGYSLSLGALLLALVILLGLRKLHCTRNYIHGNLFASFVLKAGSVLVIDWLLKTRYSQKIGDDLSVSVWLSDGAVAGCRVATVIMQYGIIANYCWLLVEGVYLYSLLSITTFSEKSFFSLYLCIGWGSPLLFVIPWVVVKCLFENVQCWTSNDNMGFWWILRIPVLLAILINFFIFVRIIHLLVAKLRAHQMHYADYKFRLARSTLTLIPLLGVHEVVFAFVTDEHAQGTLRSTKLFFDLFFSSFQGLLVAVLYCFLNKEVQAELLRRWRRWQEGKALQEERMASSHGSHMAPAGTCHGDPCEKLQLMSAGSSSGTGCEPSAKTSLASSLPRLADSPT", "assay": "cAMP assay in 3.2% rat serum albumin (assay 2)", "type": "cell-based", "conditions": "for Rat GlucR/GLP1R Ratio: […] rat serum albumin, relative potencies vs natural ligands"}, "[1]": {"tested_on": "diet induced obesity (DIO) mouse model", "assay": "Diet induced obesity (DIO) mouse model, study B", "type": "in vivo", "conditions": "for HOMA / BeHy / FGF21 / Hepatic TG / Plasma Cholesterol / Plasma TG: day 14", "description": "Female C57/B16JHsdOla (obtained from Harlan Laboratories. UK) were started on a high fat diet of D12492 (Research Diets, NJ, USA) and a chocolate confection, delicato ball (Delicata Bakverk, Sweden) at 9-11 weeks of age, and were maintained on the diet for 16 weeks prior to arrival to the animal facility, during a three week acclimation period and during drug treatment, caloric content of the two components of the diet is shown in Table 11. The mice were divided into 9 groups (n=5-6), and treatment was started at 29 weeks of age.\nThe body weight of the animals was monitored daily throughout the dosing period. At day 14, blood samples for the measurement of plasma glucose and insulin from conscious mice were obtained after a 4-hour fasting period. Mice were then anaesthetized using isoflourane and terminal blood was collected from the capillary bed behind the eye. The following parameters were measured: blood chemistry measurements of triglycerides, total cholesterol, non-esterified fatty acids (NEFA), beta-hydroxybutyrate and fibroblast growth factor 21 (FGF21) (Table 16 and Table 17 below)."}, "Human GLP1R [2]": {"molecular_target": "T2, Human GLP1R (Homo sapiens, UniProt P43220)", "T2 sequence (P43220 24-463)": "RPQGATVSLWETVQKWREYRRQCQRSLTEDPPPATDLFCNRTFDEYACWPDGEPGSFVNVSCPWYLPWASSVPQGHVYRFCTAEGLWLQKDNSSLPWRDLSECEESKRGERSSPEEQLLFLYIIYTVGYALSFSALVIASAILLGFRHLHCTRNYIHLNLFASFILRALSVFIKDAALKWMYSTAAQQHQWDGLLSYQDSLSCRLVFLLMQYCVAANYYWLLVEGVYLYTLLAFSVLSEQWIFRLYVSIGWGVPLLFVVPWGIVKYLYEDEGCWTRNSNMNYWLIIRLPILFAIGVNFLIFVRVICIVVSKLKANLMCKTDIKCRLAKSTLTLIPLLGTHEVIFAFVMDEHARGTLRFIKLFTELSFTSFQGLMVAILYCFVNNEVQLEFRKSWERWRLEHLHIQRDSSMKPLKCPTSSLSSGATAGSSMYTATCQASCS"}, "[3]": {"assay": "Stability testing of peptides in plasma", "type": "in vitro ADME, rat", "protocol": "The stability in plasma of the peptideS […], […], […] and […] was determined as follows. […] The spiked plasma samples were gently mixed and allowed to equilibrate for about 5 minutes before start of experiment. The plasma samples were incubated for 48 hours in a GalaxyR CO2 incubator at 37° C. […] The samples were stored at -70° C. until analysis. Plasma samples were assayed as follows. […] After mixing and centrifugation, 100 μl the supernatant was transferred to a new plate and 1 μl was injected onto an analytical column. The analysis was performed using a μLC-system ([…]) coupled to a medium high resolution mass spectrometer (Perkin Elmer PenTOF) with positive electrospray ionisation. […] Flow: 0.1 ml/min using a slow reversed phase gradient. […] Cleavage products arise from the action of the protease DPP IV in plasma. Both the degradation of the peptides and formation of peptide products were reported in percentage of the initial peptide concentration. Peaks were integrated and % remaining peptide was calculated: […] Levels of deamidation and DPP IV cleavage were low for […] and […]."}, "Human GLP1R [4]": {"molecular_target": "T2, Human GLP1R", "assay": "cAMP activity assay in assay medium (assay 1)", "type": "cell-based", "parameters": "expressed in transfected cells", "conditions": "assay medium", "description": "Biological Activity of Peptides in Cell-Based cAMP Activity Assay (Assay 1):\nAll sample dilutions were made in duplicate."}, "Mouse GLP1R": {"molecular_target": "T3, Mouse GLP1R (Mus musculus, UniProt O35659)", "T3 construct": "expressed in transfected cells", "T3 sequence (O35659 22-463)": "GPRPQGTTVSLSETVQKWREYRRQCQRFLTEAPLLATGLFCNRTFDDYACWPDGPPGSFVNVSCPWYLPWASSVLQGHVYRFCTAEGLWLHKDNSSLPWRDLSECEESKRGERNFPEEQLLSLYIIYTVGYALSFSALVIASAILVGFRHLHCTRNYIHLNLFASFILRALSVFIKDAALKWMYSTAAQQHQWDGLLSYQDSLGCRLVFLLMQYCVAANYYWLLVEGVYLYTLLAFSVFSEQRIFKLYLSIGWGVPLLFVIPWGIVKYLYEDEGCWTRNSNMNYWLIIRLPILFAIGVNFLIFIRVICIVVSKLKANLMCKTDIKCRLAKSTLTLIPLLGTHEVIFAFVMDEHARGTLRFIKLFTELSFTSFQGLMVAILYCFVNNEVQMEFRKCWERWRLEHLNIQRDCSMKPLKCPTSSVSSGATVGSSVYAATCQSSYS", "assay": "cAMP assay in 3.2% mouse serum albumin (assay 2)", "type": "cell-based", "protocol": "Cryopreserved cell stocks were prepared in 1× cell freezing medium-DMSO serum free (Sigma Aldrich) at 2×10^7/vial and stored at −80° C. […] Peptides were serially diluted in DMSO and then diluted 100 fold into DMEM containing serum albumin at stated final concentration. […] Cells were added to the assay plates and incubated for 30 min at room temperature. Following incubation the assay was stopped and cAMP levels measured using the HTRF® dynamic d2 cAMP assay kit available from CisBio Bioassays, as per the manufacture's guidelines. Plates were read on Perkin Elmer ENVISION® fluorescence plate readers. Human and rat serum albumin were purchased from Sigma Aldrich and mouse serum albumin from Equitech Bio Ltd.\nData was transformed to % Delta F as described in manufacturer's guidelines and analysed by 4-parameter logistic fit to determine EC50 values. […] For instance. […] To compare the balance of activities at the GLP1R and GlucR between different peptides and across different conditions, these can be correlated using the calculation below, where the EC50's are related to those of the natural ligands."}},
  "note": "Where two headings read alike, the source gives them in different places. Numbered stars: 1 amine (or outer) side, 2 acyl side, 3 side chain; on linkers, the order of the positions; unused ones are H or OH. Side chains are listed from the residue outwards. Peptide text beside a SMILES is read from it. * marks the point of attachment. γGlu = O=C(O)[C@H](CCC(=O)[*:2])N[*:1]; Palmitoyl = CCCCCCCCCCCCCCCC(=O)*",
  "data": [
    {"molecule": "L-Histidyl-L-seryl-L-glutaminylglycyl-L-threonyl-L-phenylalanyl-L-threonyl-L-seryl-L-alpha-aspartyl-(N6-[N-(1-oxohexadecyl)-L-gamma-gutamyl])L-lysy-L-sery-L-alpha-glutamyl-L-tyrosyl-L-leucyl-L-alpha-aspartyl-L-seryl-L-alpha-glutamyl-L-arginyl-L-alanyl-L-arginyl-L-alpha-L-aspartyl-L-phenylalanyl-L-valyl-L-alanyl-L-tryptophyl-L-leucyl-L-alpha-glutamyl-L-alanylglycylglycine [Peptide G933]", "values": [
      {"measurement": "Rat GlucR/GLP1R Ratio", "setting": "Rat GlucR", "value": 0.27},
      {"measurement": "BW day 14 (% change of vehicle mean)", "setting": "[1]; 5 nmol/kg sc twice daily 14 days", "value": "−11", "unit": "%"},
      {"measurement": "HOMA", "setting": "[1]; 5 nmol/kg sc twice daily", "value": 3.31},
      {"measurement": "BW day 14 (% change of vehicle mean)", "setting": "[1]; 10 nmol/kg sc twice daily 14 days", "value": "−19", "unit": "%"},
      {"measurement": "HOMA", "setting": "[1]; 10 nmol/kg sc twice daily", "value": 1.98},
      {"measurement": "body weight over the 14 day dosing period", "setting": "[1]; DIO mice, FIGS. 5-8", "value": "dose dependent and continuous weight loss"},
      {"measurement": "BeHy", "setting": "[1]; dose in Table 17: 5 nmol/kg", "value": 593.56, "unit": "µmol/L"},
      {"measurement": "FGF21", "setting": "[1]; dose in Table 17: 5 nmol/kg", "value": 4459, "unit": "pg/mL"},
      {"measurement": "Hepatic TG", "setting": "[1]; dose in Table 17: 5 nmol/kg", "value": 14.7, "unit": "g TB/100 g tissue"},
      {"measurement": "Plasma Cholesterol", "setting": "[1]; dose in Table 17: 5 nmol/kg", "value": 2.32, "unit": "mM"},
      {"measurement": "Plasma TG", "setting": "[1]; dose in Table 17: 5 nmol/kg", "value": 0.16, "unit": "mM"},
      {"measurement": "BeHy", "setting": "[1]; dose in Table 17: 50 nmol/kg", "value": 673.08, "unit": "µmol/L"},
      {"measurement": "FGF21", "setting": "[1]; dose in Table 17: 50 nmol/kg", "value": 2582, "unit": "pg/mL"},
      {"measurement": "Hepatic TG", "setting": "[1]; dose in Table 17: 50 nmol/kg", "value": 13.3, "unit": "g TB/100 g tissue"},
      {"measurement": "Plasma Cholesterol", "setting": "[1]; dose in Table 17: 50 nmol/kg", "value": 2.88, "unit": "mM"},
      {"measurement": "Plasma TG", "setting": "[1]; dose in Table 17: 50 nmol/kg", "value": 0.39, "unit": "mM"}
    ]},
    {"molecule": "CCCCCCCCCCCCCCCC(=O)N[C@@H](CCC(=O)NCCCC[C@H](NC(=O)[C@H](CCCCN)NC(=O)[C@H](CO)NC(=O)[C@H](Cc1ccc(O)cc1)NC(=O)[C@H](CC(=O)O)NC(=O)[C@H](CO)NC(=O)[C@@H](NC(=O)[C@H](Cc1ccccc1)NC(=O)[C@@H](NC(=O)CNC(=O)[C@H](CCC(N)=O)NC(=O)[C@H](CO)NC(=O)[C@@H](N)Cc1c[nH]cn1)[C@@H](C)O)[C@@H](C)O)C(=O)N[C@@H](CC(C)C)C(=O)N[C@@H](CC(=O)O)C(=O)N[C@@H](CO)C(=O)N[C@@H](CCC(=O)O)C(=O)N[C@@H](CCCNC(=N)N)C(=O)N[C@@H](C)C(=O)N[C@@H](CCCNC(=N)N)C(=O)N[C@@H](CC(=O)O)C(=O)N[C@@H](Cc1ccccc1)C(=O)N[C@H](C(=O)N[C@@H](C)C(=O)N[C@@H](Cc1c[nH]c2ccccc12)C(=O)N[C@@H](CC(C)C)C(=O)N[C@H](C(=O)N[C@@H](C)C(=O)NCC(=O)NCC(N)=O)C(C)C)C(C)C)C(=O)O", "note": "[Peptide G730] (H-HSQGTFTSDYSKK([γGlu-Palmitoyl])LDSERARDFVAWLVAGG-NH2; N-terminus assumed)", "values": [
      {"measurement": "EC50", "setting": "Rat GlucR; 3.2% rat serum albumin", "value": 45.1, "unit": "nM"},
      {"measurement": "Rat GlucR/GLP1R Ratio", "setting": "Rat GlucR", "value": 0.06},
      {"measurement": "free peptide at 4.4% HSA", "setting": "Human GLP1R [2]", "value": 0.85, "unit": "%"},
      {"measurement": "% +1 prod", "setting": "[3]", "value": 58, "unit": "%"},
      {"measurement": "% DPP cleaved product/+1 DPP cleaved product", "setting": "[3]", "value": 2, "unit": "%"},
      {"measurement": "remaining at 24 h, 2 μmol/L", "setting": "[3]; rat, plasma", "value": 24, "unit": "%"},
      {"measurement": "EC50", "setting": "Human GLP1R [4]; Table 2, C-terminal amide peptides, read-out: Human GLP1R EC50", "value": 0.018, "unit": "nM"},
      {"measurement": "EC50", "setting": "Human GLP1R [4]; Table 4, read-out: hGLP1R EC50", "value": 0.0395, "unit": "nM"},
      {"measurement": "EC50", "setting": "Mouse GLP1R", "value": 1.1, "unit": "nM"}
    ]}
  ]
}
